# What was measured:
# [1] = tested on: Cryptococcus tetragattii; assay: MIC broth microdilution (CLSI); type: cell-based; conditions: Cryptococcus tetragattii WM779
# Experimental: (§1) Antifungal susceptibility was determined by broth microdilution according to the CLSI guidelines described in M27-Ed4 ([16]).
# [2] = tested on: Cryptococcus deneoformans; assay: MIC broth microdilution (CLSI); type: cell-based; conditions: Cryptococcus deneoformans JEC21
# Experimental: as §1
# [3] = tested on: Fusarium oxysporum; assay: MIC broth microdilution (CLSI); type: cell-based; conditions: Fusarium oxysporum 07-200-3012
# Experimental: as §1
# [4] = tested on: Lomentospora prolificans; assay: MIC broth microdilution (CLSI); type: cell-based; conditions: Lomentospora prolificans 80-16-101-2445
# Experimental: as §1
# [5] = tested on: Pichia kudriavzevii; assay: MIC broth microdilution (CLSI); type: cell-based; conditions: Pichia kudriavzavii ATCC 6258
# Experimental: (§2) Antifungal susceptibility was determined by broth microdilution according to the CLSI guidelines described in M27-Ed4 ([16]). […] MFC was determined by back-plating drug-treated cultures from MIC broths onto SDA plates. The MFC was defined as the lowest concentration from which no colonies could be cultured.
# [6] = tested on: Candida auris; assay: MIC broth microdilution (CLSI); type: cell-based; conditions: Candida auris CDC-0384
# Experimental: as §1
# [7] = tested on: Candida parapsilosis; assay: MIC broth microdilution (CLSI); type: cell-based; conditions: Candida parapsilosis ATCC 22018
# Experimental: as §2
# [8] = tested on: Candida tropicalis; assay: MIC broth microdilution (CLSI); type: cell-based; conditions: Candida tropicalis M230640
# Experimental: as §1
# [9] = tested on: Candida dubliniensis; assay: MIC broth microdilution (CLSI); type: cell-based; conditions: Candida dubliniensis M230642
# Experimental: as §1
# [10] = tested on: Aspergillus udagawae; assay: MIC broth microdilution (CLSI); type: cell-based; conditions: Aspergillus udagawae 8G81
# Experimental: as §1
# [11] = tested on: Aspergillus felis; assay: MIC broth microdilution (CLSI); type: cell-based; conditions: Aspergillus felis IHE87256683D6
# Experimental: as §1
# [12] = tested on: Epidermophyton floccosum; assay: MIC broth microdilution (CLSI); type: cell-based; conditions: Epidermophyon floccosum R-113
# Experimental: as §1
# [13] = tested on: Paraphyton cookei; assay: MIC broth microdilution (CLSI); type: cell-based; conditions: Paraphyton cookei R-639
# Experimental: as §1
# [14] = tested on: Nannizzia nana; assay: MIC broth microdilution (CLSI); type: cell-based; conditions: Nannizzia nana R-133
# Experimental: as §1
# [15] = tested on: Mucor circinelloides; assay: checkerboard drug interaction (FICI, MICc); type: cell-based;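 also: simplified diagonal checkerboard screen pairing antifungals with FPPS inhibitors, FICI calculated under the Loewe additivity model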
# Experimental: (§3) Drug interactions between antifungals and FPPS inhibitors were investigated using a simplified checkerboard diagonal screening method ([45]). […] FICIs were determined according to the Loewe additivity model ([17]).
# [16] = tested on: Rhizopus oryzae; assay: checkerboard drug interaction (FICI, MICc); type: cell-based;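 also: simplified diagonal checkerboard screen pairing antifungals with FPPS inhibitors, FICI calculated under the Loewe additivity model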
# Experimental: as §3
# [17] = tested on: Cryptococcus bacillisporus; assay: checkerboard drug interaction (FICI, MICc); type: cell-based;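 also: interaction of antifungals with FPPS inhibitors assessed by a simplified diagonal checkerboard screen, with FICI computed under the Loewe additivity model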
# Experimental: as §3
# [18] = tested on: Cryptococcus tetragattii; assay: checkerboard drug interaction (FICI, MICc); type: cell-based;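 also: simplified diagonal checkerboard screen pairing antifungals with FPPS inhibitors, with FICI calculated under the Loewe additivity model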
# Experimental: as §3
# [19] = tested on: Fusarium solani; assay: checkerboard drug interaction (FICI, MICc); type: cell-based;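 also: simplified diagonal checkerboard screen pairing antifungals with FPPS inhibitors, FICI derived under the Loewe additivity model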
# Experimental: as §3
# [20] = tested on: Pichia kudriavzevii; assay: checkerboard drug interaction (FICI, MICc); type: cell-based;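 also: antifungal plus FPPS inhibitor interactions tested in a simplified diagonal checkerboard screen, with FICI calculated under the Loewe additivity model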
# Experimental: as §3
# [21] = tested on: Candida auris; assay: checkerboard drug interaction (FICI, MICc); type: cell-based;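 also: simplified diagonal checkerboard screen pairing antifungals with FPPS inhibitors, with FICI computed under the Loewe additivity model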
# Experimental: as §3
# [22] = tested on: Candida tropicalis; assay: checkerboard drug interaction (FICI, MICc); type: cell-based;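 also: simplified diagonal checkerboard screen of antifungal plus FPPS inhibitor combinations, with FICI computed by the Loewe additivity model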
# Experimental: as §3
# [23] = tested on: Candida dubliniensis; assay: checkerboard drug interaction (FICI, MICc); type: cell-based;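 also: simplified diagonal checkerboard screen pairing antifungals with FPPS inhibitors, FICI calculated under the Loewe additivity model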
# Experimental: as §3
# [24] = tested on: Aspergillus terreus; assay: checkerboard drug interaction (FICI, MICc); type: cell-based;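 also: simplified diagonal checkerboard screen pairing antifungals with FPPS inhibitors, FICI derived by the Loewe additivity model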
# Experimental: as §3
# [25] = tested on: Aspergillus udagawae; assay: checkerboard drug interaction (FICI, MICc); type: cell-based;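 also: simplified diagonal checkerboard screen pairing antifungals with FPPS inhibitors, FICI calculated using the Loewe additivity model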
# Experimental: as §3
# [26] = tested on: Aspergillus lentulus; assay: checkerboard drug interaction (FICI, MICc); type: cell-based;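 also: simplified diagonal checkerboard screen pairing antifungals with FPPS inhibitors, with the interaction index calculated under the Loewe additivity model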
# Experimental: as §3
# [27] = tested on: Aspergillus felis; assay: checkerboard drug interaction (FICI, MICc); type: cell-based;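 also: simplified diagonal checkerboard screen pairing antifungals with FPPS inhibitors, FICI calculated under the Loewe additivity model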
# Experimental: as §3
# [28] = tested on: Microsporum canis; assay: checkerboard drug interaction (FICI, MICc); type: cell-based
# Experimental: as §3
# [29] = tested on: Nannizzia nana; assay: checkerboard drug interaction (FICI, MICc); type: cell-based
# Experimental: as §3
# [30] = tested on: Microsporum canis; assay: MIC broth microdilution (CLSI); conditions: Microsporum canis R-232
# Experimental: as §1
# [31] = tested on: Trichophyton tonsurans; assay: MIC broth microdilution (CLSI); conditions: Trichophyton tonsurans R-168
# Experimental: as §1
# [32] = tested on: Lomentospora prolificans; assay: checkerboard drug interaction (FICI, MICc)
# Experimental: as §3
# [33] = tested on: Aspergillus parafelis; assay: checkerboard drug interaction (FICI, MICc)
# Experimental: as §3
# [34] = tested on: Paraphyton cookei; assay: checkerboard drug interaction (FICI, MICc);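 also: simplified diagonal checkerboard screen pairing an antifungal with an FPPS inhibitor, FICI computed under the Loewe additivity model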
# Experimental: as §3
# [35] = tested on: Nannizzia gypsea; assay: checkerboard drug interaction (FICI, MICc);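 also: simplified diagonal checkerboard screen pairing antifungals with FPPS inhibitors, FICI derived using the Loewe additivity model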
# Experimental: as §3
structure (smiles),measurement,setting,value
"C[C@@H]1[C@H](O)[C@@H](C)/C=C/C=C/C=C/C=C/C=C/C=C/C=C/[C@H](O[C@@H]2O[C@H](C)[C@@H](O)[C@H](N)[C@@H]2O)C[C@@H]2O[C@](O)(C[C@@H](O)C[C@@H](O)[C@H](O)CC[C@@H](O)C[C@@H](O)CC(=O)O[C@H]1C)C[C@H](O)[C@H]2C(=O)O [AMB, amphotericin B]",MIC / MEC,[1],0.5 µg/mL
same,MIC / MEC,[2],0.25 µg/mL
same,MIC / MEC,[3],1 µg/mL
same,MIC / MEC,[4],16 µg/mL
same,MIC / MEC,[5],0.5 µg/mL
same,MIC / MEC,[6],2 µg/mL
same,MIC / MEC,[7],0.5 µg/mL
same,MIC / MEC,[8],1 µg/mL
same,MIC / MEC,[9],0.25 µg/mL
same,MIC / MEC,[10],2 µg/mL
same,MIC / MEC,[11],4 µg/mL
same,MIC / MEC,[12],0.5 µg/mL
same,MIC / MEC,[13],1 µg/mL
same,MIC / MEC,[14],0.5 µg/mL
same,antifungal MICc,[15]; in combination with 10-ZOL,0.25
same,antifungal MICc,[15]; in combination with ZOL,0.25
same,antifungal MICc,[16]; in combination with 10-ZOL,0.13
same,antifungal MICc,[16]; in combination with ZOL,0.13
same,antifungal MICc,[17]; in combination with 10-ZOL,0.125
same,antifungal MICc,[17]; in combination with ZOL,1
same,antifungal MICc,[18]; in combination with 10-ZOL,0.25
same,antifungal MICc,[18]; in combination with ZOL,0.125
same,antifungal MICc,[19]; in combination with 10-ZOL,0.25
same,antifungal MICc,[19]; in combination with ZOL,0.25
same,antifungal MICc,[20]; in combination with 10-ZOL,0.25
same,antifungal MICc,[20]; in combination with ZOL,0.25
same,antifungal MICc,[21]; in combination with 10-ZOL,1
same,antifungal MICc,[21]; in combination with ZOL,2
same,antifungal MICc,[22]; in combination with 10-ZOL,0.5
same,antifungal MICc,[22]; in combination with ZOL,1
same,antifungal MICc,[23]; in combination with 10-ZOL,0.25
same,antifungal MICc,[23]; in combination with ZOL,0.25
same,antifungal MICc,[24]; in combination with 10-ZOL,0.25
same,antifungal MICc,[24]; in combination with ZOL,0.5
same,antifungal MICc,[25]; in combination with 10-ZOL,0.25
same,antifungal MICc,[25]; in combination with ZOL,0.25
same,antifungal MICc,[26]; in combination with 10-ZOL,1
same,antifungal MICc,[26]; in combination with ZOL,2
same,antifungal MICc,[27]; in combination with 10-ZOL,2
same,antifungal MICc,[27]; in combination with ZOL,8
same,antifungal MICc,[28]; in combination with 10-ZOL,1
same,antifungal MICc,[28]; in combination with ZOL,0.5
same,antifungal MICc,[29]; in combination with 10-ZOL,1
same,antifungal MICc,[29]; in combination with ZOL,0.25
same,MIC / MEC,[30],1 µg/mL
same,MIC / MEC,[31],0.13 µg/mL
same,antifungal MICc,[32]; in combination with 10-ZOL,4
same,antifungal MICc,[32]; in combination with ZOL,4
same,antifungal MICc,[33]; in combination with 10-ZOL,1
same,antifungal MICc,[33]; in combination with ZOL,4
same,antifungal MICc,[34]; in combination with 10-ZOL,1
same,antifungal MICc,[34]; in combination with ZOL,0.25
same,antifungal MICc,[35]; in combination with 10-ZOL,0.5
same,antifungal MICc,[35]; in combination with ZOL,0.25

# Source: article PMC12892976, “Alkylation-based optimization of antifungal FPPS inhibitors yields a potent, broad-spectrum lipophilic zoledronate derivative” (mBio, 2025)
